Where “and” joins values, the source holds several entries; their conditions need not be identical. Equal entries are not always repeated. Structures can show the parent of a compound that is named as a salt. Where two headings read alike, the source gives them in different places.
Key:
Type in all cases: cell-based, rat
[1] = test system: fibrin- and LPS-induced microglia activation; assay: cells
[2] = test system: LPS-induced microglia activation; assay: Image-based assay of LPS-induced microglia activation (HTS and dose response); settings: for inhibition at 10 µM: read-out: LPS % inhibition
[3] = test system: fibrin-induced microglia activation; assay: Image-based assay of fibrin-induced microglia activation (HTS and dose response); settings: for inhibition at 10 µM: read-out: Fibrin % inhibition
[4] = Table 7, fib = fibrin, LPS, tox = toxicity
[5] = Rattus norvegicus, Microglia, Table 7, read-out: LPS_IC50
[6] = Rattus norvegicus, Microglia, Table 7, read-out: fib_IC50
[7] = quadrant by fibrin and LPS inhibition, HTS at 10 μM
[8] = primary microglia HTS, LPS stimulation, compounds at 10 μM
[9] = primary microglia HTS, fibrin stimulation, compounds at 10 μM
[10] = quadrant by fibrin and LPS inhibition in HTS of 1907 compounds
[11] = Rattus norvegicus, Microglia, 48 h, primary microglia HTS, LPS stimulation, increased cell size (>800 μm^2) as marker of activation
[12] = Rattus norvegicus, Microglia, primary microglia HTS, fibrin stimulation, increased cell size (>800 μm^2) as marker of activation
[13] = Rattus norvegicus, Microglia, primary microglia HTS, LPS stimulation, compounds at 10 μM
[14] = Rattus norvegicus, Microglia, primary microglia HTS, fibrin stimulation, compounds at 10 μM
[15] = classification by fibrin and LPS inhibition, HTS at 10 μM
[16] = Rattus norvegicus, Microglia, 48 h

## CC(C)NCC(O)COc1cccc2ccccc12 (centres unmarked)
[1]
  Quadrant (FIG. 5b): Q4
[2]; Rattus norvegicus, Microglia
  inhibition at 10 µM: -5%
[3]; 10 µM
  Fibrin % inhibition: −18%

## CC(C)CCCCCOC(=O)COc1ccc(Cl)cc1Cl
[1]; [4]
  Activity: fib/LPS
[2]; [5]
  IC50: 1.01 µM
[3]; [6]
  IC50: 0.906 µM

## Cc1cc(C(C)(C)C)c(O)c(C(C)(C)C)c1
[1]; [7]
  Quadrant (FIG. 5b): Q4
[2]; [8]
  LPS % inhibition: 5%
[3]; [9]
  Fibrin % inhibition: −4%

## O=C(O)c1nc2cc(Cl)c(Cl)cc2nc1O
[1]; [4]
  Activity: fib/LPS
[2]; [5]
  IC50: ≥ 5 µM
[3]; [6]
  IC50: 2.65 µM

## C[C@H](N)[C@H](O)c1ccccc1.Cl
[1]
  Quadrant (FIG. 5b): Q4
[2]
  LPS % inhibition: 7%
[3]
  Fibrin % inhibition: −15%

## C[C@@H]([C@H](O)c1ccccc1)N(C)C
[1]; [7]
  Quadrant (FIG. 5b): Q4
[2]; [8]
  LPS % inhibition: 7%
[3]; [9]
  Fibrin % inhibition: −52%

## CCCCC(C)(O)C/C=C/[C@H]1[C@H](O)CC(=O)[C@@H]1CCCCCCC(=O)OC (mixture of isomers) [Misoprostol]
[1]; [10]
  Quadrant (FIG. 5b): Q4
[2]; [11]
  inhibition at 10 µM: 32%
[3]; [12]
  inhibition at 10 µM: 13%

## O=c1c(-c2ccccc2)coc2cc(O)cc(O)c12 [5,7-dihydroxyisoflavone]
[1]; [4]
  Activity: fib/LPS
[2]; [5]
  IC50: 0.021 µM
[3]; [6]
  IC50: 0.172 µM

## CC(=O)OCC(=O)[C@@]1(O)CC[C@H]2[C@@H]3C[C@H](C)C4=CC(=O)C=C[C@]4(C)[C@H]3[C@@H](O)C[C@@]21C [6alpha-methylprednisolone acetate]
[1]
  Activity: fib/LPS
[2]
  LPS specificity: 1.0
  LPS_HS: −0.40
[3]
  fib specificity: 1.0
  fib_HS: −0.26

## C[C@H]1O[C@H](O[C@H]2[C@H](O)[C@@H](O)[C@@H](O[C@H]3[C@H](O)[C@@H](O)C(O)O[C@@H]3CO)O[C@@H]2CO)[C@H](O)[C@@H](O)[C@@H]1N[C@H]1C=C(CO)[C@@H](O)[C@H](O)[C@H]1O (some centres unmarked) [Acarbose]
[1]; [10]
  Quadrant (FIG. 5b): Q2
[1]; [7]
  Quadrant (FIG. 5b): Q4
[2]; [11]
  inhibition at 10 µM: 62%
[2]; [13]
  inhibition at 10 µM: -5%
[3]; [14]
  inhibition at 10 µM: -22%
[3]; [12]
  inhibition at 10 µM: 81%

## O=C(O)COC(=O)Cc1ccccc1Nc1c(Cl)cccc1Cl [Aceclofenac]
[1]; [7]
  Quadrant (FIG. 5b): Q4
[2]; [13]
  inhibition at 10 µM: 8%
[3]; [14]
  inhibition at 10 µM: -2%

## NCCCC(O)(P(=O)(O)O)P(=O)(O)O [Alendronic acid]
[1]
  Quadrant (FIG. 5b): Q4
[2]; Rattus norvegicus, Microglia
  inhibition at 10 µM: 18%
[3]; Rattus norvegicus, Microglia
  inhibition at 10 µM: 5%

## CC(=O)Oc1c(C)c(C)c2c(c1C)CCC(C)(CCCC(C)CCCC(C)CCCC(C)C)O2 (stereo not drawn) [Alpha-tochopheryl Acetate]
[1]; [7]
  Quadrant (FIG. 5b): Q4
[2]; [8]
  LPS % inhibition: 8%
[3]; [9]
  Fibrin % inhibition: 22%

## CCCCc1oc2ccccc2c1C(=O)c1cc(I)c(OCCN(CC)CC)c(I)c1 [Amiodarone]
[1]
  Quadrant (FIG. 5b): Q4
[2]; Rattus norvegicus, Microglia
  inhibition at 10 µM: 13%
[3]; Rattus norvegicus, Microglia
  inhibition at 10 µM: -4%

## C/C=C/c1ccc(OC)cc1 [Anethole]
[1]; [7]
  Quadrant (FIG. 5b): Q4
[2]; [13]
  inhibition at 10 µM: 13%
[3]; [14]
  inhibition at 10 µM: -37%

## COc1ccc(C(=O)N2CCCC2=O)cc1 [Aniracetam]
[1]; [7]
  Quadrant (FIG. 5b): Q4
[2]; [13]
  inhibition at 10 µM: 4%
[3]; [14]
  inhibition at 10 µM: 6%

## CN1CCc2cccc3c2[C@H]1Cc1ccc(O)c(O)c1-3 [Apomorphine Hydrochloride]
[1]
  Quadrant (FIG. 5b): Q4
[2]; Rattus norvegicus, Microglia
  inhibition at 10 µM: -4%
[3]; Rattus norvegicus, Microglia
  inhibition at 10 µM: 11%

## COC(=O)C1=CCCN(C)C1 [Arecoline]
[1]; [7]
  Quadrant (FIG. 5b): Q4
[2]; [13]
  inhibition at 10 µM: 14%
[3]; [14]
  inhibition at 10 µM: 17%

## O=C1O[C@H]([C@@H](O)CO)C(O)=C1O [Ascorbic Acid]
[1]; [7]
  Quadrant (FIG. 5b): Q4
[2]; [13]
  inhibition at 10 µM: 12%
[3]; [14]
  inhibition at 10 µM: -8%

## CNCC[C@@H](Oc1ccccc1C)c1ccccc1 [Atomoxetine Hydrochloride]
[1]; [7]
  Quadrant (FIG. 5b): Q4
[2]; [13]
  inhibition at 10 µM: 7%
[3]; [14]
  inhibition at 10 µM: 15%

## CC(C)c1c(C(=O)Nc2ccccc2)c(-c2ccccc2)c(-c2ccc(F)cc2)n1CC[C@@H](O)C[C@@H](O)CC(=O)[O-].CC(C)c1c(C(=O)Nc2ccccc2)c(-c2ccccc2)c(-c2ccc(F)cc2)n1CC[C@@H](O)C[C@@H](O)CC(=O)[O-].[Ca+2] [Atorvastatin calcium, reference compound]
[1]
  Cherry-picked Hit (Suppl. Table 7): HIT (key: HIT: Hits were defined as molecules that exhibited greater than 50% inhibition of either fibrin or LPS activation)
  Hit: HIT (key: HIT: Hits were defined as molecules that exhibited greater than 50% inhibition of either fibrin or LPS activation)
  Quadrant (FIG. 5b): Q2
[2]
  LPS % inhibition: 88%
[2]; read-out: LPS IC50
  IC50: 3 µM
[2]; read-out: LPS IC50 (uM) (Suppl. Table 7)
  IC50: 3 µM
[3]; read-out: Fibrin IC50
  IC50: 0.6 µM
[3]; read-out: Fibrin IC50 (uM) (Suppl. Table 7)
  IC50: 0.6 µM

## CN1[C@@H]2CC[C@H]1C[C@@H](OC(=O)C(CO)c1ccccc1)C2 (some centres unmarked) [Atropine]
[2]; Rattus norvegicus, Microglia
  inhibition at 10 µM: 4%
[3]; Rattus norvegicus, Microglia
  inhibition at 10 µM: -21%

## COc1ccccc1OCCNCC(O)COc1cccc2[nH]c3ccccc3c12 (centres unmarked) [Carvedilol, Carvedilol Phosphate]
[1]
  Quadrant (FIG. 5b): Q4
[2]; 10 µM
  LPS % inhibition: 15% and 19%

## O=C(O)c1cn(C2CC2)c2cc(N3CCNCC3)c(F)cc2c1=O [Ciprofloxacin]
[2]; Rattus norvegicus, Microglia
  inhibition at 10 µM: 17%
[3]; Rattus norvegicus, Microglia
  inhibition at 10 µM: -30%

## C[C@H]1O[C@@H](O[C@H]2[C@@H](O)C[C@H](O[C@H]3[C@@H](O)C[C@H](O[C@H]4CC[C@@]5(C)[C@H](CC[C@@H]6[C@@H]5C[C@@H](O)[C@]5(C)[C@@H](C7=CC(=O)OC7)CC[C@]65O)C4)O[C@@H]3C)O[C@@H]2C)C[C@H](O)[C@@H]1O [Digoxin]
[1]
  Quadrant (FIG. 5b): Q3 and Q4

## CC[C@H]1OC(=O)[C@H](C)[C@@H](O[C@H]2C[C@@](C)(OC)[C@@H](O)[C@H](C)O2)[C@H](C)[C@@H](O[C@@H]2O[C@H](C)C[C@H](N(C)C)[C@H]2O)[C@](C)(O)C[C@@H](C)C(=O)[C@H](C)[C@@H](O)[C@]1(C)O [Erythromycin]
[1]; [15]
  Quadrant (FIG. 5b): Q4
[2]; [13]
  inhibition at 10 µM: 20%
[2]; primary microglia HTS, LPS stimulation, compounds at 10 μM, 10 µM
  LPS % inhibition: 13%

## C[C@]12CC[C@@H]3c4ccc(O)cc4C[C@@H](CCCCCCCCC[S+]([O-])CCCC(F)(F)C(F)(F)F)[C@H]3[C@@H]1CC[C@@H]2O (some centres unmarked) [Fulvestrant]
[1]; [10]
  Quadrant (FIG. 5b): Q4
[2]; Rattus norvegicus, Microglia, 48 h, primary microglia HTS, LPS stimulation, activation = cell size >800 μm2
  inhibition at 10 µM: 15%

## CN1[C@@H]2CC[C@H]1C[C@@H](OC(=O)[C@H](CO)c1ccccc1)C2 [Hyoscyamine]
[2]; [16]
  inhibition at 10 µM: 13%

## CN1CCCCC1CCN1c2ccccc2Sc2ccc([S+](C)[O-])cc21 (centres unmarked) [Mesoridazine]
[3]; Rattus norvegicus, Microglia
  inhibition at 10 µM: -5%

## OCc1cccnc1 [Nicotinyl Alcohol Tartrate]
[2]; [11]
  inhibition at 10 µM: 4%
[3]; [12]
  inhibition at 10 µM: -5%

## C#CC1(O)CC[C@H]2[C@@H]3CCC4=CC(=O)CC[C@@H]4[C@H]3CC[C@@]21CC (some centres unmarked) [Norgestrel, Levonorgestrel]
[2]; primary microglia HTS, LPS stimulation, increased cell size (>800 μm^2) as marker of activation
  LPS % inhibition: 14%
[3]; primary microglia HTS, fibrin stimulation, increased cell size (>800 μm^2) as marker of activation
  Fibrin % inhibition: 13%

## CCn1cc(C(=O)O)c(=O)c2cc(F)c(N3CCN(C)CC3)cc21 [Pefloxacin]
[2]; [16]
  inhibition at 10 µM: 21%

## CN1CCN(CCCN2c3ccccc3Sc3ccc(Cl)cc32)CC1 [Prochlorperazine dimaleate, reference compound]
[1]
  Activity: fib/LPS
  Quadrant (FIG. 5b): Q4

## Cc1cc2nc3c(=O)[nH]c(=O)nc-3n(C[C@H](O)[C@H](O)[C@H](O)CO)c2cc1C [Riboflavin]
[1]
  Quadrant (FIG. 5b): Q4

## CC(=O)S[C@@H]1CC2=CC(=O)CC[C@]2(C)[C@H]2CC[C@@]3(C)[C@@H](CC[C@@]34CCC(=O)O4)[C@H]12 [Spironolactone]
[1]
  Quadrant (FIG. 5b): Q4
[2]; [16]
  inhibition at 10 µM: 20%

## Cc1cn([C@H]2C[C@H](N=[N+]=[N-])[C@@H](CO)O2)c(=O)[nH]c1=O [Zidovudine]
[1]
  Quadrant (FIG. 5b): Q4
[2]; 10 µM
  LPS % inhibition: 13%
[2]; Rattus norvegicus, Microglia
  inhibition at 10 µM: 9%

## Dimenhydrinate
[1]; [15]
  Quadrant (FIG. 5b): Q4

Source: patent publication US20210330611A1, “THERAPY FOR NEUROLOGICAL DISEASES/DISORDERS” (priority 2020, published 2021)
